Patent US7947854B2, “Bis-cationic compounds and use thereof” (The University of Sydney, priority 2003, dated 2011)
“And” between values parts separate entries of the source, which are not always exact repeats. Identical values can stand only once. Marks after values point to notes of the source that are not given here.

What was measured:
[1] = system: Candida albicans ATCC 10231; experiment: In vitro antifungal activity, yeasts, NCCLS M27-A; format: cell-based; conditions: Candida albicans, ATCC10231; Table 9
From the text: (§1) The assay used for yeasts (Candida; Cryptococcus) is that of the National Committee for Clinical Laboratory Standards. 1997. Reference Method for Broth Dilution Antifungal Susceptibility Testing of Yeasts: Approved Standard. NCCLS document M27-A.Villanova, Pa., USA as published in Ghannoum, M. A., A. S. Ibrahim, Y. Fu, M. C. Shafiq, J. E Edwards, Jr. and R. S. Criddle. 1992. Susceptibility testing of Cryptococcus neoformans: A microdilution technique. J. Clin. Microbiol. 30:2881-2886.

[2] = system: Cryptococcus neoformans ATCC 90112; experiment: In vitro antifungal activity, yeasts, NCCLS M27-A; format: cell-based; conditions: Cryptococcus neoformans, ATCC90112; Table 9
From the text: as §1

[3] = system: membrane-associated phospholipase B (PLB activity); experiment: Radiometric assay, membrane-associated PLB activity; format: biochemical, Cryptococcus neoformans H99; conditions: pH 4
Procedure: (§2) Fungal isolates and media. […] Isolate H99 was kindly supplied by Dr. Gary Cox (Duke University Medical Center, Durham, N.C., USA), and subcultured onto Sabouraud dextrose agar (SDA) at 30° C.
(§3) Cellular disruption to prepare membrane and cytosolic fractions. The cell pellet from the preparation of the supernatant, above, was also frozen at −70° C. After washing twice with imidazole buffer, it was disrupted in the presence of a protease inhibitor cocktail (P 8215 for fungal and yeast cells; 4-(2-aminoethyl)benzenesulfonyl fluoride hydrochloride, 100 mM, 1,10-phenanthroline, 500 mM, pepstatin A, 2.2 mM, E-64, 1.4 mM; Sigma) in a MiniBeadbeater-8 Cell Disrupter (MBB-8; Daintree Scientific, Tasmania, Australia) for three cycles of 1 min, alternating with a 1 min cooling period on ice. The homogenate was centrifuged at 14,000 g for 15 min to obtain the membrane (pellet) and the cytosolic (supernatant) fractions.
Radiometric assay method for phospholipases. Enzyme activities were measured as described previously in a final volume of 125 μL at 37° C. For the determination of secreted PLB activity, carrier dipalmitoyl phosphatidylcholine (DPPC, final concentration 800 μM) and 1,2-di[1-^14C] palmitoyl phosphatidylcholine (20,000 dpm) were dried under nitrogen and suspended in 125 mM imidazole acetate buffer (assay buffer, pH 4.0) by sonication using a Branson 450 sonifier. The reaction time was 22 min, using 1 μg total protein and PLB activity was determined by the rate of decrease of the radiolabelled PC substrate, with appearance of the label in free fatty acid. This assay also simultaneously allows for the determination of phospholipase A, C and D activities. These activities were measured by the appearance of radiolabel from PC in Lyso PC, diacylglycerol and phosphatidic acid, respectively.
(§4) All reactions were terminated by adding 0.5 mL of chloroform:methanol (2:1 v/v). The reaction products were extracted by the method as disclosed in Bligh, E. C. and W. J. Dyer. 1959 ‘A rapid method of total lipid extraction and purification.’ Can. J. Biochem. Physiol. 37:911-917, separated by TLC and quantified as previously described. In the case of PLC activity, the TLC plates were developed in petroleum ether (BP 60-80° C.): diethyl ether: acetic acid (90:15:1, v/v/v) instead of chloroform:methanol:water (65:25:4, v/v/v).
(§5) All experiments were carried out in duplicate or triplicate. The effects of pH on the various phospholipase activities were measured using 50 mM final concentration of imidazole-acetate buffer (pH range 3-5), MES buffer (pH range 6-8) and glycine buffer (pH 9-10). Controls for non-enzymic breakdown of substrates were included at all pH values. Cations, Triton X-100 and metal chelators were made up as stock solutions in water and diluted to the final concentration in the appropriate assay buffer.
Preparation of inhibitors and use in assays. The following compounds were tested (for structures, see FIG. 2): compound 1, 1,12-bis(tributylphosphonium)dodecane dibromide (Fluka AG, Buchs, Switzerland); compound 2, 1,10-bis(tributylammonium)-decane dibromide; compound 3, 1,12-bis(tributylammonium)do-decane dibromide (both synthesised in-house); compound 4, 1,10-bis(trimethylammonium)decane dibromide [“decamethonium”] (Sigma, St. Louis Mo., USA). All compounds were prepared as stock solutions of 700 μM in assay buffer containing 5 mM EDTA, which was then diluted serially with buffer to obtain solutions of 70, 7, 0.7 and 0.07 μM. In each assay, 45 μL of these solutions was used, and the final volume of 125 μL was made up of substrate, enzyme and buffer. The radiometric assay was carried out as above.

[4] = system: cytosolic phospholipase B (LPL/LPTA activities); experiment: Radiometric assay, cytosolic LPL/LPTA activities; format: biochemical, Cryptococcus neoformans H99; conditions: pH 4
Procedure: as §2, §3
Secreted LPL and LPTA activities were measured simultaneously in a reaction mixture containing 1-[^14C]palmitoyl lyso-PC (25,000 dpm) and carrier lyso-PC (final concentration 200 μM) in assay buffer. The reaction time was […] with 1 μg of total protein and LPL activity was measured by the rate of loss of 1-[^14C]palmitoyl lyso-PC with release of radiolabelled fatty acids. LPTA activity was estimated from the rate of formation of radiolabelled PC.
as §4, §5
Preparation of inhibitors and use in assays. The following compounds were tested (for structures, see FIG. 2): compound 1, 1,12-bis(tributylphosphonium)dodecane dibromide (Fluka AG, Buchs, Switzerland); compound 2, 1,10-bis(tributylammonium)-decane dibromide; compound 3, 1,12-bis(tributylammonium)do-decane dibromide (both synthesised in-house); compound 4, 1,10-bis(trimethylammonium)decane dibromide [“decamethonium”] (Sigma, St. Louis Mo., USA). All compounds were prepared as stock solutions of 700 μM in assay buffer containing 5 mM EDTA, which was then diluted serially with buffer to obtain solutions of 70, 7, 0.7 and 0.07 μM. In each assay, 45 μL of these solutions was used, and the final volume of 125 μL was made up of substrate, enzyme and buffer. The radiometric assay was carried out as above. Inhibition was calculated as the percent of substrates (DPPC or Lyso-PC) remaining in the case of PLB and LPL activities, or of DPPC produced, in the case of the LPTA activity. The amounts converted, or produced, in the inhibitor-free control were normalised to 100%, and the inhibition calculated against it. All assays were done in triplicate.
Under these conditions only PLB, LPL and LPTA activities (both secreted and cell-associated) were measured. Initially, compounds deemed to be potential inhibitors were assayed at 25 and 250 μM.

Structure (SMILES) | MIC [1] | MIC [2] | % Inhibition PLB, Membrane-bound Enzyme ([3]; 2.5 μM) [%] | % Inhibition PLB, Membrane-bound Enzyme ([3]; 25 μM) [%] | % Inhibition PLB, Membrane-bound Enzyme ([3]; 250 μM) [%] | % Inhibition LPL, Cytosolic Enzyme ([4]; 2.5 μM) [%] | % Inhibition LPTA, Cytosolic Enzyme ([4]; 2.5 μM) [%] | % Inhibition LPL, Cytosolic Enzyme ([4]; 25 μM) [%] | % Inhibition LPTA, Cytosolic Enzyme ([4]; 25 μM) [%] | % Inhibition LPL, Cytosolic Enzyme ([4]; 250 μM) | % Inhibition LPTA, Cytosolic Enzyme ([4]; 250 μM) [%]
CCCC[N+](CCCC)(CCCC)CCCCCCCCCCCC[N+](CCCC)(CCCC)CCCC [1,12-Bis-(tributylammonium)dodecane dichloride] | 2.6 µg/mL and 4.4 µM | 1.3 µg/mL and 2.2 µM |  |  |  |  |  |  |  |  | 
CCCC[P+](CCCC)(CCCC)CCCCCCCCCCCC[P+](CCCC)(CCCC)CCCC [Compound 1, 1,12-bis(tributylphosphonium)dodecane dibromide] |  |  | 0 | 0 | 0 | 0 | 0 | 0 | 0 | 12.7* % | 0
